The results in this text go back to patent US20210186834A1, “TAHITI VANILLA EXTRACT AND 4-[(1E,3S)-3-ETHENYL-3,7-DIMETHYLOCTA-1,6-DIENYL]PHENOL FOR COMBATTING CUTANEOUS AGEING” (PIERRE FABRE DERMO-COSMETIQUE, priority 2018, published 2021).

What all share (type): cell-based
For one test, the system named is protein P16. As to the kind of experiment: Expression of P16 by immunofluorescence after acute UVA stress on normal human fibroblasts. As to conditions: bakuchiol 0.5 μg/mL, added 1 h before UVA 60 J/cm^2, sampled 24 h after irradiation, N=3 donors; P=NS versus the non-treated group. The method, then: The biological model used for this study consists of normal human dermis fibroblasts obtained from healthy donors. The fibroblasts are cultured in a standard culture medium for 36 hours, the products to test (vehicle (DMSO), bakuchiol (0.5 μg/ml), vanilla extract (0.05%, p/v) and the combination thereof (same concentrations)) are added to the culture medium one hour before the UVA radiation test. This test consists in a photo-ageing stress: the fibroblasts are irradiated by UVA at a dose of 60 J/cm^2 (Waldmann UVA lamp). A condition without irradiation is also realised. The fibroblasts are next sampled 24 h after irradiation for immunofluorescence analyses. All the experimental conditions are realised with N=3 donors. The fluorescence was quantified using Nikon NIS Element software in order to obtain an average fluorescence per cell and per condition. The treatment of human fibroblasts with acute UVA stress induces a significant increase in the expression of P16, going from 500 AU to almost 1000 AU, P<0.001, versus the non-stimulated condition. […] The statistics are produced using a one way variance analysis (one-way ANOVA) followed by a Dunnett test.

Another test concerns IL8. As to the kind of experiment: Expression of IL8 by immunofluorescence after acute UVA stress on normal human fibroblasts. As to conditions: bakuchiol 0.5 μg/ml, UVA 60 J/cm^2, 24 h after irradiation; P<0.05 versus non-treated conditions. The method, then: (§1) The fibroblasts are cultured in a standard culture medium for 36 hours, the products to test (vehicle (DMSO), bakuchiol (0.5 μg/ml), vanilla extract (0.05%, p/v) and the combination thereof (same concentrations)) are added to the culture medium one hour before the UVA radiation test. This test consists in a photo-ageing stress: the fibroblasts are irradiated by UVA at a dose of 60 J/cm^2 (Waldmann UVA lamp). A condition without irradiation is also realised. The fibroblasts are next sampled 24 h after irradiation for immunofluorescence analyses. All the experimental conditions are realised with N=3 donors. The fluorescence was quantified using Nikon NIS Element software in order to obtain an average fluorescence per cell and per condition. The protocol used is rigorously the same as that described in example 1. The products tested are the same, the concentrations also. The expression of IL8 is then quantified by immunofluorescence. The treatment of human fibroblasts with acute UVA stress induces a significant increase in the expression of IL8, going from 100% to 5300% (P<0.05) compared to the condition without irradiation. In addition, it appears that the treatment by UVA induces important morphological changes in the fibroblasts, going from a star-shaped model to a spindle-shaped model.

A further test has as its system normal human fibroblasts. As to the kind of experiment: Morphological changes of fibroblasts induced by exposure to UVA. As to conditions: bakuchiol 0.5 μg/ml, vanilla extract 0.05% (p/v), combination at the same concentrations; UVA 60 J/cm^2. Here is the method:
as §1

Structures are written as SMILES.

Consider `C=C[C@@](C)(/C=C/c1ccc(O)cc1)CCC=C(C)C` [bakuchiol, 4-[(1E,3S)-3-ethenyl-3,7-dimethylocta-1,6-dienyl]phenol], for which, in the test on protein P16, the “reduction of the expression of P16 following irradiation” value was −44.4%. The “decrease of the expression of IL8 following exposure to UVA” value with IL8 was 88.3%. Besides, in the test with normal human fibroblasts, the “effect on morphological changes (star-shaped to spindle-shaped) induced by exposure to UVA” value is “prevention of the morphological changes”.
